# Measurements: patent US20260034135A1, “USE OF N6-BENZYLAMINOPURINE AS AN APPETITE SUPPRESSANT” (THE GOVERNING COUNCIL OF THE UNIVERSITY OF TORONTO, priority 2022, published 2026)
# Tests used:
# Npy, Agrp, Pomc = test: Hypothalamic feeding neuropeptide expression in mice by qRT-PCR; type: in vivo, CD-1 mice
# Experimental: All protocols using mice were approved by the University Animal Care Committee of the University of Toronto and were performed in accordance with the Canadian Council on Animal Care. Animal experiments were performed in three separate animal facilities: Medical Sciences Building (MSB), Centre for Cellular and Biomolecular Research (CCBR) and the Biological Sciences Facility (BSF) due to ongoing construction and housing changes. Facilities and dates are indicated in each experimental cohort. N6-benzylaminopurine (BAP; also called N6-benzyladenine) was obtained from Sigma (B3408, cell culture grade in powder form; CAS number 1214-39-7). Male and female CD-1 mice aged 6-7 weeks were acquired from Charles Rivers and acclimated on a chow diet for one week prior to experimentation. Mice were then weight-matched and placed on either a 60% high fat diet (HFD) or sucrose-matched control diet for 4 weeks (from Research Diets: 60% HFD D12492 and the sucrose-matched control diet […]). After 3 weeks on the diet, mice were acclimated for one week to the drinking apparatus, a 50 mL canonical tube with a drinking tube. After 4 weeks on the diet, the mice were again weight-matched and randomly assigned to either the control or BAP group. […] The average dosages achieved using this method are as follows: male HFD (200 mg/kg/day), male control (157 mg/kg/day), female HFD (189 mg/kg/day), and female control (129.9 mg/kg/day). The mice were exposed continuously to the solutions for a total of 33 days. One week prior to the end of the experiment (day 28), the mice were fasted for 4 hr and underwent intraperitoneal insulin tolerance testing (ITT). After 33 days, the mice were sacrificed, and their tissues were collected. RNA was isolated from the collected hypothalamic and used to quantify gene expression via qRT-PCR. […] All mice were kept on the 60% HFD throughout the exposure period. The male mice were fed their respective emulsion for 11, 14 or 27 days (as indicated), and the female mice were fed for 12 or 36 days (as indicated). On day 12, the one cohort of male mice underwent general anesthetic for the purpose of post-experiment Bruker scanning. The male mice were then fed their assigned emulsion 2 hr prior to sacrificing and tissue collection. […] Hypothalamic collected from the mice were then used to isolate RNA and quantify gene expression using quantitative reverse transcription polymerase chain reaction (qRT-PCR). For cell culture experiments, total RNA was isolated using PureLink RNA isolation kit (Thermofisher Scientific, Burlington, ON, Canada) according to the manufacturer's instruction with on column DNase step (PureLink DNAse kit) or DNase I treatment to remove genomic DNA. For mouse experiments, total RNA was isolated using mirVana PARIS RNA and native protein isolation kit (Thermofisher Scientific). […] Quantitative reverse transcription polymerase chain reaction (RT-qPCR) was performed with 12.5 ng of cDNA amplified with Platinum SYBR green qPCR SuperMix-UDG with ROX on an Applied Biosystems Prism 7900HT or PowerTrack Green Master Mix on an Applied Biosystems QuantStudio 5 and gene specific primers as per manufacturer's instructions (Table 1). Data was analyzed using […] and normalized to reference gene, either 60S ribosomal protein L7 (Rpl7) or Histone 3a (His).
# mHypoA-59 cell line = test: Gene expression by qRT-PCR in mHypoA-59 hypothalamic cell line; type: cell-based, mouse; conditions: 100 μM BAP, 16 hr
# Experimental: Hypothalamic neurons from embryonic and adult mice were previously immortalized to generate the clonal cell lines mHypoE-46, mHypoE-44, mHypoE-41, mHypoE-38, mHypoA-59, a FAC-sorted POMC/GFP mouse-derived cell line, mHypoA-POMC/GFP-2, and a mixed culture mHypoA-Bmal1-WT/F cell line (6, 13, 14). The mHypoE-46, mHypoE-44, and mHypoA-Bmal1-WT/F lines were cultured in DMEM containing 1000 mg/L glucose supplemented with 5% FBS and 1% pen/strep. The mHypoE-41, mHypoE-38, and mHypoA-59 cell lines were cultured in DMEM containing 4500 mg/L glucose supplemented with 2% FBS and 1% pen/strep. The mHypoA-POMC/GFP-2 line was cultured in DMEM containing 1000 mg/L glucose supplemented with 2% FBS and 1% pen/strep. All cells were maintained in 5% CO2 at 37° C. BAP was initially dissolved in DMSO solvent (vehicle control) to achieve 1000x the intended dose. The BAP solution was then diluted 1:1000 with the growth media used for the cell line. For co-treatment experiments, the vehicle control for ATP, UDP, and PKI was water, and for the H89 PKA inhibitor was DMSO. Neuropeptide gene expression levels were determined by qRT-PCR.
# For cell culture experiments, total RNA was isolated using PureLink RNA isolation kit (Thermofisher Scientific, Burlington, ON, Canada) according to the manufacturer's instruction with on column DNase step (PureLink DNAse kit) or DNase I treatment to remove genomic DNA. For mouse experiments, total RNA was isolated using mirVana PARIS RNA and native protein isolation kit (Thermofisher Scientific). RNA quality and quantity were measured using Nanodrop 2000 and 500-1000 ng of complimentary DNA (cDNA) was synthesized with High Capacity cDNA Reverse Transcription kit (Applied biosystems, Thermofisher Scientific). Quantitative reverse transcription polymerase chain reaction (RT-qPCR) was performed with 12.5 ng of cDNA amplified with Platinum SYBR green qPCR SuperMix-UDG with ROX on an Applied Biosystems Prism 7900HT or PowerTrack Green Master Mix on an Applied Biosystems QuantStudio 5 and gene specific primers as per manufacturer's instructions (Table 1). Data was analyzed using […] and normalized to reference gene, either 60S ribosomal protein L7 (Rpl7) or Histone 3a (His).
# [1] = rats fed BAP for 13 weeks, EPA study, no data shown; cited from earlier work
# [2] = female CD-1, 60% HFD, BAP in drinking water 33 days
# [3] = male CD-1, HFD, BAP emulsion 11 days, fed 2 hr prior to sacrifice, cohort CCBR
# [4] = male CD-1, HFD, BAP emulsion 14 days, cohort BSF
# [5] = male CD-1, HFD, BAP emulsion, 28 days cohort BSF (27 days per FIG. 22)
# [6] = male CD-1, sucrose-matched control diet, BAP in drinking water 33 days
structure (smiles),measurement,setting,value
"c1ccc(CNc2ncnc3nc[nH]c23)cc1 [BAP, N6-benzylaminopurine]","hypothalamic Npy, Agrp, and Pomc expression","Npy, Agrp, Pomc; female CD-1, 60% HFD, 300 mg/kg BAP emulsion 36 days, cohort BSF",no changes
same,hypothalamic expression of feeding neuropeptides,"Npy, Agrp, Pomc; female CD-1, 60% HFD, BAP emulsion 12 days, fed 16 hr prior to sacrifice, cohort CCBR (data not shown)",no significant changes
same,hypothalamic Agrp mRNA expression,"Npy, Agrp, Pomc; [2]",no significant changes
same,hypothalamic Npy mRNA expression,"Npy, Agrp, Pomc; [2]",no significant changes
same,hypothalamic Pomc mRNA expression,"Npy, Agrp, Pomc; [2]",decreased
same,"hypothalamic feeding neuropeptide expression (Npy, Agrp, Pomc)","Npy, Agrp, Pomc; female CD-1, sucrose-matched control diet, BAP in drinking water 33 days, trend to increased Npy and AgRP",do not have significant changes
same,"hypothalamic feeding-related neuropeptide expression (Npy, Agrp, Pomc) vs control","Npy, Agrp, Pomc; male CD-1, 60% HFD, BAP in drinking water 33 days",did not have any significant changes
same,hypothalamic Agrp mRNA expression,"Npy, Agrp, Pomc; [3]",significantly increased
same,hypothalamic Npy mRNA expression,"Npy, Agrp, Pomc; [3]",significantly increased
same,hypothalamic Pomc mRNA expression,"Npy, Agrp, Pomc; [3]",no significant changes
same,hypothalamic Agrp expression,"Npy, Agrp, Pomc; [4]",modest increase
same,hypothalamic Npy expression,"Npy, Agrp, Pomc; [4]",modest increase
same,hypothalamic Pomc expression,"Npy, Agrp, Pomc; [4]",no change
same,hypothalamic Agrp expression,"Npy, Agrp, Pomc; [5]",modest increase
same,hypothalamic Npy expression,"Npy, Agrp, Pomc; [5]",modest increase
same,hypothalamic Pomc expression,"Npy, Agrp, Pomc; [5]",no change
same,hypothalamic AgRP expression vs control,"Npy, Agrp, Pomc; [6]",significantly higher
same,hypothalamic Npy expression vs control,"Npy, Agrp, Pomc; [6]",significantly higher
same,hypothalamic Pomc mRNA expression vs control,"Npy, Agrp, Pomc; [6]",no change
same,Npy mRNA expression,mHypoA-59 cell line,no effect
same,"feeding neuropeptide expression (Npy, Agrp) in response to BAP",mHypoA-59 cell line,no changes in feeding neuropeptide expression
same,food intake,[1],reduced
same,weight gain,[1],reduced
